According to patent US9896470B2, “Enhancing the stability and purity and increasing the bioavailability of human milk oligosaccharides or precursors or blends thereof” (Glycom A/S, priority 2012, dated 2018):

How the values were obtained:
Assay type in all cases: physicochemical
[1] = Calorimetric (DSC) determination of glass transition temperature of the amorphous samples; conditions: for Tg (glass transition temperature): Perkin Elmer DSC-7, heating rate 10° C./min, spray-dried amorphous sample; for storage temperature limit suggested by Tg: spray-dried amorphous material
Method: The calorimetric experiments to determine the glass transition temperature of the amorphous samples were carried out using Perkin Elmer DSC-7 at a heating rate of 10° C./min; the samples (5-7 mg) were placed in open aluminium crucibles.

[2] = Stability test after two months (40° C., rel. humidity 75%)
Method: 75% of the methanol present in the feed solution was removed. […] Tg: 83.9° C.

[3] = Shelf life of spray-dried material on storage; conditions: below 40° C. storage temperature

SMILES	Tg (glass transition temperature) [1] [°C]	storage temperature limit suggested by Tg [1]	stability test: changes in analytical data and powder X-ray diagram [2]	shelf life [3]
C[C@@H]1OC(O[C@H]2[C@H](O[C@H]3[C@H](O)[C@@H](O)C(O)O[C@@H]3CO)O[C@H](CO)[C@H](O)[C@@H]2O)[C@@H](O)[C@H](O)[C@@H]1O (some centres unmarked) [spray-dried 2′-FL, 2′-O-fucosyllactose]	83.9	around 60 °C	no changes in the analytical data and powder X-ray diagram	excellent shelf life
CC(=O)N[C@H]1[C@H](O[C@H]2[C@@H](O)[C@@H](CO)O[C@@H](O[C@H]3[C@H](O)[C@@H](O)C(O)O[C@@H]3CO)[C@@H]2O)O[C@H](CO)[C@@H](O[C@@H]2O[C@H](CO)[C@H](O)[C@H](O)[C@H]2O)[C@@H]1O (mixture of isomers) [spray-dried LNnT, Lacto-N-neotetraose]	81.6	around 60 °C	no changes in the analytical data and powder X-ray diagram	excellent shelf life
CC(=O)N[C@H]1[C@H]([C@H](O)[C@H](O)CO)O[C@@](OC[C@H]2O[C@@H](O[C@H]3[C@H](O)[C@@H](O)[C@H](O)O[C@@H]3CO)[C@H](O)[C@@H](O)[C@H]2O)(C(=O)O)C[C@@H]1O [spray-dried 6′-SL, 6′-O-sialyllactose]	84.0	around 60 °C		excellent shelf life
